For test [1], the target named is T1, Carbonic anhydrase 2 (Homo sapiens, UniProt P00918). The test can be described thus: CA Activity Assay.
In test [2] the target is T2, Carbonic anhydrase 1 (Homo sapiens, UniProt P00915). The test can be described thus: CA Activity Assay.
For test [3], the target named is T1, Carbonic anhydrase 2. Put plainly: Hydratase Activity Assay.
The target of test [4] is T2, Carbonic anhydrase 1. The test can be described thus: Hydratase Activity Assay.
Test [5] deals with T1, Carbonic anhydrase 2. Put plainly: Esterase Activity Assay. Conditions: pH 7.4. The procedure:
(§1) The enzymatic reaction, in a total volume of 3.0 mL, contained 1.4 mL of 0.05 M Tris-SO4 buffer (pH 7.4), 1 mL of 3 mM 4-nitrophenylacetate, 0.5 mL H2O and 0.1 mL enzyme solution.

The target in test [6] is T2, Carbonic anhydrase 1. The test can be described thus: Esterase Activity Assay. As to conditions: pH 7.4. The protocol: as §1

What is called Ki is the dissociation constant of the complex between target and ligand, obtained from inhibition or displacement. What is called IC50 is the concentration at which inhibition is half-maximal. A low value points to higher potency.

SMILES strings stand for the structures.

T2 sequence (P00915 whole entry): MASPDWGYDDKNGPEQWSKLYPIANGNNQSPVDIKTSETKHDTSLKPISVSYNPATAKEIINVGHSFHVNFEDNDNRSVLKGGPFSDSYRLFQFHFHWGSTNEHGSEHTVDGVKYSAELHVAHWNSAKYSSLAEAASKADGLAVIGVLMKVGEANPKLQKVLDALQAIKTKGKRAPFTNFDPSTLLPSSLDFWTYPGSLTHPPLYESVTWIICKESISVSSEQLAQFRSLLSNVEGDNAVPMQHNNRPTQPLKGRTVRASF

For `NS(=O)(=O)c1nnc(NC(=O)c2nn(-c3cccc([N+](=O)[O-])c3)c(-c3ccccc3)c2C(=O)c2ccccc2)s1` [N-[5-(aminosulfonyl)-1,3,4-thiadiazol-2-yl]-4-benzoyl-1-(3-nitrophenyl)-5-phenyl-1H-pyrazole-3-carboxamide (1)], the Ki in test [1] was determined as 3000 nM; in test [2], 1400 nM. In addition, the IC50 in test [3] is 400 nM; in test [4] it was 1200 nM; in test [5], 3000 nM; in test [6], 1400 nM.

The values are drawn from BindingDB's records for doi:10.3109/14756366.2012.712516 (Dumlupinar University, 2013).
